Data from ChEMBL document CHEMBL2311450, “Synthesis and antibacterial evaluation of novel 11,4″-disubstituted azithromycin analogs with greatly improved activity against erythromycin-resistant bacteria” (2013).
Converted amounts (≈) assume the structure as drawn.

What was measured:
Salmonella typhimurium [1] = test: Antibacterial activity against Salmonella typhimurium TA102 by broth microdilution method; format: functional, Salmonella enterica subsp. enterica serovar Typhimurium; conditions: Salmonella enterica
Salmonella typhimurium [2] = test: Antibacterial activity against Salmonella typhimurium TA98 by broth microdilution method; format: functional, Salmonella enterica subsp. enterica serovar Typhimurium; conditions: Salmonella enterica
Streptococcus pyogenes [3] = test: Antibacterial activity against erythromycin-resistant Streptococcus pyogenes RE clinical isolate by broth microdilution method; format: functional
Streptococcus pyogenes [4] = test: Antibacterial activity against erythromycin-susceptible Streptococcus pyogenes by broth microdilution method; format: functional
Staphylococcus aureus [5] = test: Antibacterial activity against methicillin-susceptible Staphylococcus aureus ATCC 29213 by broth microdilution method; format: functional
Staphylococcus aureus [6] = test: Antibacterial activity against penicillin-resistant Staphylococcus aureus clinical isolate by broth microdilution method; format: functional
Staphylococcus aureus [7] = test: Antibacterial activity against erythromycin-susceptible Staphylococcus aureus ATCC 25923 by broth microdilution method; format: functional
Streptococcus pneumoniae [8] = test: Antibacterial activity against erythromycin-resistant Streptococcus pneumoniae AB11 expressing erm and mef genes by broth microdilution method; format: functional
Streptococcus pneumoniae [9] = test: Antibacterial activity against erythromycin-resistant Streptococcus pneumoniae A22072 expressing mef gene by broth microdilution method; format: functional
Streptococcus pneumoniae [10] = test: Antibacterial activity against erythromycin-resistant Streptococcus pneumoniae B1 expressing erm gene by broth microdilution method; format: functional
Streptococcus pneumoniae [11] = test: Antibacterial activity against erythromycin-susceptible Streptococcus pneumoniae ATCC 49619 by broth microdilution method; format: functional

| SMILES | MIC (Salmonella typhimurium [1]) [µg/mL] | MIC (Salmonella typhimurium [2]) [µg/mL] | MIC (Streptococcus pyogenes [3]) [µg/mL] | MIC (Streptococcus pyogenes [4]) [µg/mL] | MIC (Staphylococcus aureus [5]) [µg/mL] | MIC (Staphylococcus aureus [6]) [µg/mL] | MIC (Staphylococcus aureus [7]) [µg/mL] | MIC (Streptococcus pneumoniae [8]) [µg/mL] | MIC (Streptococcus pneumoniae [9]) [µg/mL] | MIC (Streptococcus pneumoniae [10]) [µg/mL] | MIC (Streptococcus pneumoniae [11]) [µg/mL] |
| --- | --- | --- | --- | --- | --- | --- | --- | --- | --- | --- | --- |
| CC[C@H]1OC(=O)[C@H](C)[C@@H](O[C@H]2C[C@@](C)(OC)[C@@H](OC(=O)NNC(=O)c3ccccc3OC)[C@H](C)O2)[C@H](C)[C@@H](O[C@@H]2O[C@H](C)C[C@H](N(C)C)[C@H]2O)[C@](C)(O)C[C@@H](C)CN(C)[C@H](C)[C@@H](OC(=O)NCCc2ccccc2)[C@]1(C)O | 8 (≈ 7.35 µM) | 16 (≈ 14.7 µM) | 64 (≈ 58.8 µM) | 32 (≈ 29.4 µM) | 2 (≈ 1.84 µM) | 4 (≈ 3.68 µM) | 2 (≈ 1.84 µM) | 16 (≈ 14.7 µM) | 2 (≈ 1.84 µM) | 8 (≈ 7.35 µM) | 0.06 (≈ 0.0551 µM) |
| CC[C@H]1OC(=O)[C@H](C)[C@@H](O[C@H]2C[C@@](C)(OC)[C@@H](OC(=O)NCCCCNC(=O)c3ccc(OC)cc3)[C@H](C)O2)[C@H](C)[C@@H](O[C@@H]2O[C@H](C)C[C@H](N(C)C)[C@H]2O)[C@](C)(O)C[C@@H](C)CN(C)[C@H](C)[C@@H](OC(=O)NCCc2ccc(F)cc2)[C@]1(C)O | 2 (≈ 1.72 µM) | 4 (≈ 3.44 µM) | 64 (≈ 55.1 µM) | 16 (≈ 13.8 µM) | 2 (≈ 1.72 µM) | 4 (≈ 3.44 µM) | 1 (≈ 0.86 µM) | 8 (≈ 6.88 µM) | 0.5 (≈ 0.43 µM) | 4 (≈ 3.44 µM) | 0.12 (≈ 0.103 µM) |
| CC[C@H]1OC(=O)[C@H](C)[C@@H](O[C@H]2C[C@@](C)(OC)[C@@H](OC(=O)NCCCCNC(=O)c3ccc(OC)cc3)[C@H](C)O2)[C@H](C)[C@@H](O[C@@H]2O[C@H](C)C[C@H](N(C)C)[C@H]2O)[C@](C)(O)C[C@@H](C)CN(C)[C@H](C)[C@@H](OC(=O)NCCc2ccccc2)[C@]1(C)O | 0.5 (≈ 0.437 µM) | 4 (≈ 3.5 µM) | 64 (≈ 55.9 µM) | 16 (≈ 14 µM) | 0.5 (≈ 0.437 µM) | 4 (≈ 3.5 µM) | 1 (≈ 0.874 µM) | 4 (≈ 3.5 µM) | 0.25 (≈ 0.218 µM) | 1 (≈ 0.874 µM) | 0.06 (≈ 0.0524 µM) |
| CC[C@H]1OC(=O)[C@H](C)[C@@H](O[C@H]2C[C@@](C)(OC)[C@@H](OC(=O)NCCCCNC(=O)c3ccccc3OC)[C@H](C)O2)[C@H](C)[C@@H](O[C@@H]2O[C@H](C)C[C@H](N(C)C)[C@H]2O)[C@](C)(O)C[C@@H](C)CN(C)[C@H](C)[C@@H](OC(=O)NCCc2ccccc2)[C@]1(C)O | 1 (≈ 0.874 µM) | 4 (≈ 3.5 µM) | 16 (≈ 14 µM) | 16 (≈ 14 µM) | 32 (≈ 28 µM) | 8 (≈ 6.99 µM) | 0.5 (≈ 0.437 µM) | 16 (≈ 14 µM) | 2 (≈ 1.75 µM) | 8 (≈ 6.99 µM) | 0.12 (≈ 0.105 µM) |
| CC[C@H]1OC(=O)[C@H](C)[C@@H](O[C@H]2C[C@@](C)(OC)[C@@H](O)[C@H](C)O2)[C@H](C)[C@@H](O[C@@H]2O[C@H](C)C[C@H](N(C)C)[C@H]2O)[C@](C)(O)C[C@@H](C)CN(C)[C@H](C)[C@@H](O)[C@]1(C)O [AZITHROMYCIN] | 0.25 (≈ 0.334 µM) | 0.5 (≈ 0.668 µM) | 8 (≈ 10.7 µM) | 0.03 (≈ 0.0401 µM) | 2 (≈ 2.67 µM) | 0.5 (≈ 0.668 µM) | 0.25 (≈ 0.334 µM) | 256 (≈ 342 µM) | 4 (≈ 5.34 µM) | 128 (≈ 171 µM) | 0.03 (≈ 0.0401 µM) |
| CC[C@H]1OC(=O)[C@H](C)[C@@H](O[C@H]2C[C@@](C)(OC)[C@@H](OC(=O)NCCCCNC(=O)c3ccc(OC)c(OC)c3)[C@H](C)O2)[C@H](C)[C@@H](O[C@@H]2O[C@H](C)C[C@H](N(C)C)[C@H]2O)[C@](C)(O)C[C@@H](C)CN(C)[C@H](C)[C@@H](OC(=O)NCCc2ccccc2)[C@]1(C)O | 4 (≈ 3.41 µM) | 4 (≈ 3.41 µM) | 64 (≈ 54.5 µM) | 8 (≈ 6.81 µM) | 32 (≈ 27.2 µM) | 16 (≈ 13.6 µM) | 0.5 (≈ 0.426 µM) | 16 (≈ 13.6 µM) | 2 (≈ 1.7 µM) | 8 (≈ 6.81 µM) | 0.12 (≈ 0.102 µM) |
| CC[C@H]1OC(=O)[C@H](C)[C@@H](O[C@H]2C[C@@](C)(OC)[C@@H](OC(=O)NCCCCNC(=O)c3ccc(OC)cc3)[C@H](C)O2)[C@H](C)[C@@H](O[C@@H]2O[C@H](C)C[C@H](N(C)C)[C@H]2O)[C@](C)(O)C[C@@H](C)CN(C)[C@H](C)[C@@H](OC(=O)NCc2ccc(F)c(F)c2)[C@]1(C)O | 32 (≈ 27.4 µM) | 4 (≈ 3.43 µM) | 64 (≈ 54.9 µM) | 8 (≈ 6.86 µM) | 4 (≈ 3.43 µM) | 4 (≈ 3.43 µM) | 0.5 (≈ 0.429 µM) | 16 (≈ 13.7 µM) | 0.12 (≈ 0.103 µM) | 4 (≈ 3.43 µM) | 0.03 (≈ 0.0257 µM) |
| CC[C@H]1OC(=O)[C@H](C)[C@@H](O[C@H]2C[C@@](C)(OC)[C@@H](OC(=O)NCCCCNC(=O)c3ccc(OC)cc3)[C@H](C)O2)[C@H](C)[C@@H](O[C@@H]2O[C@H](C)C[C@H](N(C)C)[C@H]2O)[C@](C)(O)C[C@@H](C)CN(C)[C@H](C)[C@@H](OC(=O)NCc2ccccc2)[C@]1(C)O | 0.12 (≈ 0.106 µM) | 2 (≈ 1.77 µM) | 64 (≈ 56.6 µM) | 8 (≈ 7.08 µM) | 4 (≈ 3.54 µM) | 2 (≈ 1.77 µM) | 0.5 (≈ 0.442 µM) | 8 (≈ 7.08 µM) | 0.12 (≈ 0.106 µM) | 2 (≈ 1.77 µM) | 0.03 (≈ 0.0265 µM) |
